Experimental data as given in patent publication US20230018245A1, “Skin Whitening Composition Containing Dihydro-5-Methylfuran-2(3h)-One Derivative” (Epi Biotech Co., Ltd., priority 2019, published 2023).
No end group written: not given here.

Tests used:
B16 melanoma cells [1] = assay: Cytotoxicity of hydroquinone and Compound 2 by MTT assay (Example 4); type: cell-based; details: treated alone, concentration of 10 μM or less; α-MSH 100 nM 76 hours; absorbance 590 nm; FIG. 6
Protocol: Using B16 melanoma cells, cytotoxicity was measured by MTT assay when hydroquinone and Compound 2 were treated alone or in combination.
200 μL of B16 melanoma cells were aliquoted in a 96-well plate to 2.7×10^3 cells/well, and then cultured at 37° C., 5% CO2 incubator for 24 hours. B16 melanoma cells were treated with hydroquinone and/or Compound 2 for 2 hours under the same conditions as in Example 3.
Thereafter, α-MSH was treated at a concentration of 100 nM for 76 hours, and absorbance was measured at 590 nm by MTT assay, and the results are shown in FIG. 6.

B16 melanoma cells [2] = assay: Melanogenesis inhibition upon single or combination treatment with hydroquinone (Example 3); type: cell-based
Protocol: Using B16 melanoma cells, melanogenesis inhibition and melanosome degradation effect were confirmed upon single or combination treatment with hydroquinone and the compound of the present invention.
B16 melanoma cells were treated alone or in combination with hydroquinone and/or a compound of the present invention for 2 hours under the following conditions.
(i) Compound 2: 1, 3, 10 μM single administration
(ii) Hydroquinone: 1, 3, 10 μM single administration
(iii) Compound 2 (1, 3, 10 μM)+Hydroquinone (5 μM)
Thereafter, α-MSH was treated at a concentration of 100 nM for 76 hours.
After 72 hours, absorbance was measured at 405 nm to quantify the amount of melanin released into the medium, and the inhibition rate was calculated and shown in FIG. 5.

[3] = target: T1, tyrosinase extracted from B16 melanoma cells (Mus musculus, UniProt P11344); assay: Inhibition of tyrosinase activity, L-DOPA oxidation (Example 5); type: biochemical; details: tyrosinase and L-DOPA, 37° C., 1 hour, absorbance 475 nm; vs positive control treated with tyrosinase and L-DOPA; FIG. 7
T1 construct: tyrosinase was extracted from B16 melanoma cells and used as an enzyme source; endogenous in cells; host or cells: B16 melanoma cells stimulated with alpha-MSH; cell extract
T1 sequence (P11344 19-533): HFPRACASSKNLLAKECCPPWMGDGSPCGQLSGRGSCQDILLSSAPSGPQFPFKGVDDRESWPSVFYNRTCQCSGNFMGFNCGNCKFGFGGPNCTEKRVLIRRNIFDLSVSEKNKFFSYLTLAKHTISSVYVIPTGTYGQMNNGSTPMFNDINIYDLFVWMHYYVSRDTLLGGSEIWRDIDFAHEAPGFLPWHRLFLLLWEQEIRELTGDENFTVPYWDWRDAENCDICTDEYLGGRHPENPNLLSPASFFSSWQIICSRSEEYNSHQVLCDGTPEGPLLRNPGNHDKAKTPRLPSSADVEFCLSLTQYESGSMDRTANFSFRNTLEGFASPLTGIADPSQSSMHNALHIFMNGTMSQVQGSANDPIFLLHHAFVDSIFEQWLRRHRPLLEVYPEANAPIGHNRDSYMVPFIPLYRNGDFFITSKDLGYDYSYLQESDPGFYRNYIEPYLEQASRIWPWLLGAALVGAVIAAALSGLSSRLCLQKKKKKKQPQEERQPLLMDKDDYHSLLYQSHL
Protocol: B16 melanoma cells were aliquoted in a 100 mm culture dish at 2×10^5 cells/dish. After 24 hours, the medium from the 100 mm culture dish was removed and treated with DMEM medium containing 10% FBS and a stimulant (α-MSH). After 48 hours, tyrosinase was extracted from B16 melanoma cells and used as an enzyme source. Using the principle that tyrosinase oxidizes L-DOPA to DOPA chrome and DOPA chrome has absorbance at 475 nm, tyrosinase and L-DOPA were incubated at 37° C. for 1 hour and absorbance was measured at 475 nm at 2 minute intervals, so that the production amount of DOPA chrome according to time was measured. The amount of changing 1 nmole of L-DOPA per minute to DOPA chrome was defined as the amount of tyrosinase activity. The tyrosinase inhibitory effect of Compound 2 was evaluated by comparing the group treated with tyrosinase and L-DOPA in combination as a positive control and the group treated with tyrosinase, L-DOPA and Compound 2 in combination.

## Oc1ccc(O)cc1 [hydroquinone, Benzene-1,4-diol]
B16 melanoma cells [1]
  cell viability / cytotoxicity (MTT assay): no cytotoxicity
B16 melanoma cells [2]; Mus musculus, B16, single treatment, based on the amount of melanogenesis in the positive control group (α-MSH 100 nM)
  IC50: 7.7 µM
B16 melanoma cells [2]; treated alone, 1, 3, 10 μM, α-MSH 100 nM, FIG. 5
  melanogenesis inhibition and melanosome degradation effect: dose-dependently increased

## α-melanocyte stimulating hormone (SYSMEHFRWGKPV; ends and bridges not checked; UniProt P01189 138-150, looked up) [α-MSH, agonist that stimulates melanogenesis; used as the stimulant / positive control]
B16 melanoma cells [2]; positive control treated with α-MSH 100 nM
  increase of the amount of melanin: 16.5 times

## OC[C@H]1O[C@@H](Oc2ccc(O)cc2)[C@H](O)[C@@H](O)[C@@H]1O [Arbutin]
[3]
  inhibition of tyrosinase activity: inhibited the activity of tyrosinase
